These results are taken from ChEMBL document CHEMBL5360674, “Discovery of Naphthol Tetramers from Endolichenic Fungus Daldinia childiae 047219 Based on MS/MS Molecular Networking” (2023).

Structures are written as SMILES.

Assay [1] deals with RAW264.7. As to the kind of experiment: Antiinflammatory activity in mouse RAW264.7 cells assessed as reduction in LPS-induced NO production at 25 to 50 uM preincubated for 2 hrs followed by LPS stimulation and measured after 24 hrs by Griess reagent-based assay relative to control. The assay is classed as functional. Conditions: dose 25-50 µM, time 26 hrs. Also on record: scale not given: the % may be the effect or the level left. On the technique in general: Nitrite, measured by Griess reagent, commonly stands in for NO production.

For assay [2], the system named is RAW264.7. As to the kind of experiment: Antiinflammatory activity in mouse RAW264.7 cells assessed as reduction in LPS-induced NO production preincubated for 2 hrs followed by LPS stimulation and measured after 24 hrs by Griess reagent-based assay. The assay is classed as functional, cell-based. Conditions: dose 5-50 µM, time 26.0 hrs.
For assay [3], the system named is RAW264.7. Description: Antiinflammatory activity in mouse RAW264.7 cells assessed as reduction in LPS-induced NO production at 10 uM preincubated for 2 hrs followed by LPS stimulation and measured after 24 hrs by Griess reagent-based assay relative to control. Particulars: time 26 hrs. Also on record: scale not given: the % may be the effect or the level left. The class given is functional.

For `COc1cccc2ccc(-c3cc(-c4ccc(O)c5c(OC)cccc45)c4cccc(OC)c4c3O)c(O)c12`, the Activity with RAW264.7 [1] was 50%; in the assay on RAW264.7 [2] it was “Dose-Dependent Effect”.
`COc1cccc2ccc(-c3ccc4cccc(OC)c4c3O)c(O)c12`: the Activity is 50% with RAW264.7 [1] and “Dose-Dependent Effect” in the assay with RAW264.7 [2].
Take `C[C@@H]1C[C@H]2[C@@H]3CCC4=CC(=O)C=C[C@]4(C)[C@@]3(F)[C@@H](O)C[C@]2(C)[C@@]1(O)C(=O)CO` [DEXAMETHASONE]: the Activity in the assay on RAW264.7 [3] amounted to 50%.
As to `COc1cccc2ccc(-c3ccc(O)c4c(OC)cccc34)c(O)c12`, the Activity with RAW264.7 [1] is 50%; in the assay with RAW264.7 [2], “Dose-Dependent Effect”.
